Assays:
[1] = target: T1, ATP-dependent translocase ABCB1 (MDR1) (Homo sapiens, UniProt P08183); experiment: in vitro; conditions: dog
[2] = target: T1, ATP-dependent translocase ABCB1 (MDR1); experiment: in vitro; conditions: dog; remark: listed apart in the source
[3] = target: T1, ATP-dependent translocase ABCB1 (MDR1); experiment: in vitro; conditions: dog; remark: listed apart in the source
[4] = target: T2, ATP-dependent translocase ABCB1 (Homo sapiens, UniProt P08183); conditions: spodoptera frugiperda, sf9, 20 µM;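 further: Compound-stimulated ATPase activity measured in membrane preparations of MDR1-expressing Sf9 cells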
T2 sequence (P08183 whole entry): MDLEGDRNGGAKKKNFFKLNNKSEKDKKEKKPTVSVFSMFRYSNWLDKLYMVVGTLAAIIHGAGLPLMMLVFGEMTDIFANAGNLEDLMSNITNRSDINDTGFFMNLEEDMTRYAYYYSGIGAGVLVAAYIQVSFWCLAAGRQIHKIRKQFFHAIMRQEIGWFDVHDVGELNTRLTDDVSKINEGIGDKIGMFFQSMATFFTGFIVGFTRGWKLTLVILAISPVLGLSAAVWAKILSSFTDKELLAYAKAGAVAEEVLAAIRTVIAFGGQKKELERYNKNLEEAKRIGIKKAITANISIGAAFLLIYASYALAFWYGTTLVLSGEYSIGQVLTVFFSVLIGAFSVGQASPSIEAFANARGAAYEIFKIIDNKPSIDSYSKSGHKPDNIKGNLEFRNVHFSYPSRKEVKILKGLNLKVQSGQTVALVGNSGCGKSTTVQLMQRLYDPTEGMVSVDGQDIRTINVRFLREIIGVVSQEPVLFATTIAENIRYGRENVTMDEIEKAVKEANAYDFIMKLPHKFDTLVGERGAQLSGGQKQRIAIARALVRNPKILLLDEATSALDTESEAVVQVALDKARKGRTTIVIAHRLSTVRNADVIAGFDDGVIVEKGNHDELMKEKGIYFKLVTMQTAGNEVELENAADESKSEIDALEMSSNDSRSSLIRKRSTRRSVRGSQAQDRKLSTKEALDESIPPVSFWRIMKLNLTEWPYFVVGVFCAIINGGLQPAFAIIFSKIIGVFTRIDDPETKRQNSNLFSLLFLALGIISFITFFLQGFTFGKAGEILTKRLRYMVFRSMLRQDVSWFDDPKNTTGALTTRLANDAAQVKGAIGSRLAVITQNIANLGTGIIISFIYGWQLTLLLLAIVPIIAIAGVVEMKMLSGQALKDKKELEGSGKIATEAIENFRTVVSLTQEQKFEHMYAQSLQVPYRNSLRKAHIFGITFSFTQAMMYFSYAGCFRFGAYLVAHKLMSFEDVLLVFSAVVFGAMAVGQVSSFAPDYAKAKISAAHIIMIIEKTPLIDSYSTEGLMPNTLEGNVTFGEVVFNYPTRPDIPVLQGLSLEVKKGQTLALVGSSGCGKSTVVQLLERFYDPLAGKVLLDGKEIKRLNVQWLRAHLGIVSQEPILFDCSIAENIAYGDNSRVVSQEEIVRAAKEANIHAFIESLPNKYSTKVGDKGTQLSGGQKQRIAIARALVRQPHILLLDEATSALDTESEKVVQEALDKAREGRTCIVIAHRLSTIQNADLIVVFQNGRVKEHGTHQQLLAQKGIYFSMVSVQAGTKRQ

[5] = target: T2, ATP-dependent translocase ABCB1; experiment: TP_TRANSPORTER: ATP hydrolysis in MDR1-expressing Sf9 cells; assay type: functional

T1 sequence (P08183 whole entry): as above

Row | Structure (SMILES) | efflux ratio ([1]; MDCK-MDR1, Ratio_Papp) | Papp A→B ([2]; MDCK-MDR1, Papp) [×10⁻⁶ cm/s] | Papp B→A ([3]; MDCK-MDR1, Papp) [×10⁻⁶ cm/s] | Ratio_ATPase activity [4] | efflux ratio ([1]; MDCK-MDR1) | Papp A→B ([2]; MDCK-MDR1) [×10⁻⁶ cm/s] | Papp B→A ([3]; MDCK-MDR1) [×10⁻⁶ cm/s] | Activity [5]
1 | COC(=O)[C@@H]1[C@H]2C[C@H]3c4[nH]c5ccccc5c4CCN3C[C@@H]2CC[C@@H]1O [YOHIMBINE] | 1.17 | 42.9 | 50.1 | 1.05 |  |  |  | 
2 | CC(=O)Nc1ccc(OCC(O)CNC(C)C)cc1 (stereo not drawn) [PRACTOLOL] | 1.32 | 1.24 | 1.64 | 1.42 |  |  |  | 
3 | CC[C@@]1([C@@H]2O[C@@H]([C@H]3O[C@@](O)(CO)[C@H](C)C[C@@H]3C)C[C@@H]2C)CC[C@H]([C@]2(C)CC[C@]3(C[C@H](O)[C@@H](C)[C@@H]([C@@H](C)[C@@H](OC)[C@H](C)C(=O)O)O3)O2)O1 [MONENSIN] |  |  |  | 6.71 | 2.88 | 10.2 | 29.4 | 
4 | COc1ccc([C@@H]2Sc3ccccc3N(CCN(C)C)C(=O)[C@@H]2OC(C)=O)cc1 [DILTIAZEM] | 1.64 | 41.3 | 67.6 | 2.64 |  |  |  | 
5 | CNC(=C[N+](=O)[O-])NCCSCc1ccc(CN(C)C)o1 [RANITIDINE] | 1.35 | 1.44 | 1.95 | 1.23 |  |  |  | 
6 | CN(Cc1cnc2nc(N)nc(N)c2n1)c1ccc(C(=O)N[C@@H](CCC(=O)O)C(=O)O)cc1 [METHOTREXATE] | 0.67 | 1.05 | 0.706 | 0.91 |  |  |  | 
7 | CCOc1ccc(-c2nc3cc(-c4nc5cc(N6CCN(C)CC6)ccc5[nH]4)ccc3[nH]2)cc1 |  |  |  | 0.86 | 7.75 | 0.335 | 2.6 | 
8 | CC(C)(C)c1ccc(C(O)CCCN2CCC(C(O)(c3ccccc3)c3ccccc3)CC2)cc1 (stereo not drawn) [TERFENADINE] |  | 6.56 | 30.6 |  |  |  |  | 
9 | CC[C@]1(O)C[C@@H]2CN(CCc3c([nH]c4ccccc34)[C@@](C(=O)OC)(c3cc4c(cc3OC)N(C)[C@H]3[C@@](O)(C(=O)OC)[C@H](OC(C)=O)[C@]5(CC)C=CCN6CC[C@]43[C@@H]65)C2)C1 [VINBLASTINE] | > 23 | < 1 | 23.2 | 4.31 |  |  |  | 
10 | CN/C(=N/CCSCc1nc[nH]c1C)NC#N [CIMETIDINE] |  |  |  | 1.31 | 2.19 | 1.23 | 2.69 | 
11 | CCC(C)n1ncn(-c2ccc(N3CCN(c4ccc(OCC5COC(Cn6cncn6)(c6ccc(Cl)cc6Cl)O5)cc4)CC3)cc2)c1=O (stereo not drawn) [ITRACONAZOLE] | 0.97 | 57.1 | 55.2 | 1.2 |  |  |  | 
12 | CN(C)CCC(c1ccc(Cl)cc1)c1ccccn1 (racemic) [CHLORPHENIRAMINE] | 1.14 | 56.2 | 64.2 | 0.97 |  |  |  | 
13 | COc1cc2c(cc1OC)CN(CCc1ccc(NC(=O)c3cccc4c(=O)c5cccc(OC)c5[nH]c34)cc1)CC2 |  | 0.212 | 1.86 |  |  |  |  | 
14 | NC12CC3CC(CC(C3)C1)C2 [AMANTADINE] |  | 18.6 | 15.7 |  |  |  |  | 
15 | COc1cc2nc(N3CCN(C(=O)c4ccco4)CC3)nc(N)c2cc1OC [PRAZOSIN] | 4.63 | 14.3 | 66.1 | 3.4 |  |  |  | 
16 | C[C@@H]1C[C@H]2[C@@H]3CCC4=CC(=O)C=C[C@]4(C)[C@@]3(F)[C@@H](O)C[C@]2(C)[C@@]1(O)C(=O)CO [DEXAMETHASONE] | 12.4 | 4.35 | 53.7 | 1.15 |  |  |  | 

Row | Structure (SMILES) | efflux ratio ([1]; MDCK-MDR1, Ratio_Papp) | Papp A→B ([2]; MDCK-MDR1, Papp) [×10⁻⁶ cm/s] | Papp B→A ([3]; MDCK-MDR1, Papp) [×10⁻⁶ cm/s] | Ratio_ATPase activity [4] | efflux ratio ([1]; MDCK-MDR1) | Papp A→B ([2]; MDCK-MDR1) [×10⁻⁶ cm/s] | Papp B→A ([3]; MDCK-MDR1) [×10⁻⁶ cm/s] | Activity [5]
17 | COc1cc([C@@H]2c3cc4c(cc3[C@@H](O[C@@H]3O[C@@H]5CO[C@@H](C)O[C@H]5[C@H](O)[C@H]3O)[C@H]3COC(=O)[C@H]23)OCO4)cc(OC)c1O [ETOPOSIDE] |  | 2.14 | 6.06 |  |  |  |  | 
18 | CC(C)(C)NC(=O)[C@@H]1C[C@@H]2CCCC[C@@H]2CN1C[C@@H](O)[C@H](Cc1ccccc1)NC(=O)[C@H](CC(N)=O)NC(=O)c1ccc2ccccc2n1 | 165 | 0.301 | 49.5 | 7.11 |  |  |  | 
19 | COc1cccc2c1C(=O)c1c(O)c3c(c(O)c1C2=O)C[C@@](O)(C(=O)CO)C[C@@H]3O[C@H]1C[C@H](N)[C@H](O)[C@H](C)O1 [DOXORUBICIN] | 0.67 | 1.45 | 0.973 | 0.95 |  |  |  | 
20 | O=C1c2c(O)ccc(O)c2C(=O)c2c(NCCNCCO)ccc(NCCNCCO)c21 [MITOXANTRONE] |  | 0.191 | 0.644 |  |  |  |  | 
21 | COC(=O)[C@H]1[C@H]2C[C@@H]3c4[nH]c5cc(OC)ccc5c4CCN3C[C@H]2C[C@@H](OC(=O)c2cc(OC)c(OC)c(OC)c2)[C@@H]1OC [RESERPINE] | 3.71 | 6.81 | 25.3 | 3.85 |  |  |  | 
22 | CC[C@H]1OC(=O)[C@H](C)[C@@H](O[C@H]2C[C@@](C)(OC)[C@@H](O)[C@H](C)O2)[C@H](C)[C@@H](O[C@@H]2O[C@H](C)C[C@H](N(C)C)[C@H]2O)[C@](C)(O)C[C@@H](C)C(=O)[C@H](C)[C@@H](O)[C@]1(C)O [ERYTHROMYCIN] |  | 0.094 | 1.35 |  |  |  |  | 
23 | CN(C)C(=O)Oc1ccc[n+](C)c1 [PYRIDOSTIGMINE] |  |  |  | 0.89 | 1.24 | 1.02 | 1.26 | 
24 | COC(=O)C1=C(C)NC(C)=C(C(=O)OC)C1c1ccccc1[N+](=O)[O-] [NIFEDIPINE] |  |  |  |  |  |  |  | substrate [+]
25 | Cc1c(O)cccc1C(=O)N[C@@H](CSc1ccccc1)[C@H](O)CN1C[C@H]2CCCC[C@H]2C[C@H]1C(=O)NC(C)(C)C | 8.86 | 3.81 | 33.8 | 5.21 |  |  |  | 
26 | CNS(=O)(=O)Cc1ccc2[nH]cc(CCN(C)C)c2c1 | 1.37 | 0.953 | 1.3 | 1.23 |  |  |  | 
27 | CN(C)C(=O)C(CCN1CCC(O)(c2ccc(Cl)cc2)CC1)(c1ccccc1)c1ccccc1 [LOPERAMIDE] |  |  |  | 3.75 | 7.77 | 9.98 | 77.6 | 
28 | CN(C)CCCN1c2ccccc2Sc2ccc(Cl)cc21 [CHLORPROMAZINE] | 1.09 | 43.8 | 47.7 | 2.42 |  |  |  | 
29 | Nc1nc(N)c2nc(-c3ccccc3)c(N)nc2n1 | 0.99 | 18.5 | 18.4 | 1.12 |  |  |  | 
30 | C[C@]12CC[C@H]3[C@@H](CCC4=CC(=O)CC[C@@]43C)[C@@H]1CC[C@@H]2O [TESTOSTERONE] |  |  |  | 1.32 | 0.73 | 91.6 | 66.8 | 
31 | C=C[C@H]1C[N@@]2CC[C@H]1C[C@@H]2[C@@H](O)c1ccnc2ccc(OC)cc12 [QUINIDINE] | 27.2 | 3.64 | 99 | 2.54 |  |  |  | 
32 | CC[C@H]1C(=O)Nc2ccc(F)cc2N1C(=O)OC(C)C [OPAVIRALINE] | 0.96 | 75.8 | 72.6 | 1.02 |  |  |  | 

Reference: ChEMBL document CHEMBL1908284, “Rational use of in vitro P-glycoprotein assays in drug discovery” (J Pharmacol Exp Ther, 2001)
